US8383172B2, “Recovery of hydrophobic peptides from oils” (University of Saskatchewan, priority 2007, dated 2013)

Tests used:
[1] = test system: human lung adenocarcinoma cells (Calu-3); experiment: Microarray analysis of apoptosis-regulating genes in Calu-3 cells; type: cell-based; set-up: key: ‘+’ and ‘−’ indicates genes over- and under-expressed, respectively; ‘+’ and ‘−’ indicates genes over- and under-expressed, respectively
Description: Cell culture. Human bronchial epithelial adenocarcinoma cell line (Calu-3) was obtained from ATCC (Manassas, Va., USA) and cultured in 50 cm^2 plastic culture flasks in modified eagle's medium (MEM) supplemented with 10% fetal bovine serum, glutamine (4 mM; Sigma-Aldrich, Canada) and penicillin (100 U mL-1)-streptomycin (100 μg mL-1) solution (Sigma-Aldrich, Canada). Cells were cultured at an initial density of 10^6 cells/mL, and fresh media was added on day 3. Cells were grown in an incubator at 37° C., 5% CO2, and 100% humidity.
Chemical treatments. Calu-3 cells were treated with different concentrations (0-100 μM) of cyclolinopeptide A (“CLA”), cyclolinopeptide C (“CLC”) or cyclolinopeptide E (“CLE”). Camptothecin (Sigma-Aldrich, Canada; 4 μM) and dimethylsulfoxide (DMSO) were used as positive and negative controls, respectively. Camptothecin is useful as a positive control in studies testing the effect of certain compounds on apoptosis in cancer cell lines. Camptothecin is a cytotoxic quinoline alkaloid that inhibits the DNA enzyme topoisomerase I (topo I) and has shown remarkable anti-cancer activity. Two analogs of camptothecin have been approved and are used in cancer chemotherapy.
Current microarray design platforms facilitate the design of gene expression arrays for analysis of a compound of interest and its impact on a large number of known genes. Cyclolinopeptide A, cyclolinopeptide C and cyclolinopeptide E were therefore used in microarray analysis to determine their effect on under- and over-expression of genes involved in the regulation of apoptosis in human lung adenocarcinoma cells (Table 2).

heat shock gene HSP70A = experiment: Expression of heat shock gene HSP70A in nematode cultures exposed to cyclolinopeptide-A; type: in vivo, Caenorhabditis elegans; conditions: two hours exposure, C. elegans
Excerpt: FIG. 17 is a chart showing the effects of cyclolinopeptide A on the expression of the HSP70A gene in Caenorhabditis elegans. Bars on the columns represent standard deviations. Letters above the bars designate significant differences determined by data analysis using one-way analysis of variance with pair-wise multiple comparisons were done by the Tukey test; and
The following example relates to the use of selected purified individual cyclolinopeptides recovered and processed as disclosed herein for modulating the expression of stress genes. Nematode cultures (Caenorhabditus elegans) were exposed for two hours to one of DMSO (negative control), 0.1 μM cyclolinopeptide-A, 1.0 μM cyclolinopeptide-A, 10.0 μM cyclolinopeptide-A, and 100.0 μM cyclolinopeptide-A, and then cultured to assess the effects of cyclolinopeptide-A on the expression of the heat shock gene HSP70A by C. elegans. The control treatment was unamended culture medium.

cyclolinopeptide C [CLP-C]
BCL-2 gene up- or down-regulated [1]: −
CASP10 gene up- or down-regulated [1]: +
CDEB gene up- or down-regulated [1]: +
CIDEA gene up- or down-regulated [1]: +
Fas gene up- or down-regulated [1]: +
HRK gene up- or down-regulated [1]: +
TNF gene up- or down-regulated [1]: +
TP53BP2 gene up- or down-regulated [1]: +
TP53 gene up- or down-regulated [1]: +

cyclolinopeptide A [CLP-A]
increase in the production of the Hsp70A protein (heat shock gene HSP70A; 0.1 μM in culture media): 30%
increase in the production of this heat shock protein (Hsp70A) (heat shock gene HSP70A; 1.0 μM in culture media): 3.5 fold
increase in the production of the Hsp70A protein (heat shock gene HSP70A; 10.0 μM in culture media): 30%
BAK gene up- or down-regulated [1]: +
BCL-2 gene up- or down-regulated [1]: +
CDEB gene up- or down-regulated [1]: +
FASLG gene up- or down-regulated [1]: +
Fas gene up- or down-regulated [1]: +
TNF gene up- or down-regulated [1]: +
TP53BP2 gene up- or down-regulated [1]: +
TP53 gene up- or down-regulated [1]: +

cyclolinopeptide E [CLP-E]
BCL-2 gene up- or down-regulated [1]: −
CDEB gene up- or down-regulated [1]: +
CIDEA gene up- or down-regulated [1]: +
Fas gene up- or down-regulated [1]: +
HRK gene up- or down-regulated [1]: +
TNF gene up- or down-regulated [1]: +
TP53BP2 gene up- or down-regulated [1]: +
